In ChEMBL document CHEMBL3217710, “Antimalarial peroxides: advances in drug discovery and design” (Medchemcomm, 2012):

Experiments:
Plasmodium falciparum [1] = assay: Antimalarial activity against chloroquine-sensitive Plasmodium falciparum at 4.6 nM relative to control; format: functional
Plasmodium falciparum [2] = assay: Antimalarial activity against chloroquine-resistant Plasmodium falciparum; format: functional, organism-based
Plasmodium falciparum [3] = assay: Antimalarial activity against chloroquine-sensitive Plasmodium falciparum; format: functional, organism-based
Plasmodium falciparum [4] = assay: Antimalarial activity against chloroquine-resistant Plasmodium falciparum K1; format: functional, organism-based
[5] = Half life in simulated stomach acid; format: ADME
Plasmodium falciparum [6] = assay: Antimalarial activity against multi-drug resistant Plasmodium falciparum; format: functional, organism-based
Plasmodium yoelii = assay: Antimalarial activity against chloroquine-resistant Plasmodium yoelii infected in po dosed mouse; format: functional
Plasmodium falciparum [7] = assay: Antimalarial activity against chloroquine-sensitive Plasmodium falciparum FCR-3; format: functional; settings: FCR-3/Gambia
Plasmodium berghei [8] = assay: Antimalarial activity against chloroquine-sensitive Plasmodium berghei infected in mouse; format: functional
Plasmodium vinckei [9] = assay: Antimalarial activity against Plasmodium vinckei infected in ip dosed mouse assessed as decrease in parasitemia by peters four day suppressive test; format: functional; settings: 96 h
Plasmodium vinckei [10] = assay: Antimalarial activity against Plasmodium vinckei infected in po dosed mouse assessed as decrease in parasitemia by peters four day suppressive test; format: functional; settings: 96 h
[11] = Octanol-water partition coefficient, log P of the compound at pH 7.4; format: physicochemical
Plasmodium falciparum [12] = assay: Antimalarial activity against chloroquine-sensitive Plasmodium falciparum at 5.2 nM relative to control; format: functional
Plasmodium falciparum [13] = assay: Antimalarial activity against Plasmodium falciparum; format: functional, organism-based
[14] = Half life of the compound in HCl solution at pH 1; format: physicochemical
Plasmodium berghei [15] = assay: Antimalarial activity against Plasmodium berghei infected in sc dosed mouse; format: functional, organism-based
[16] = Half life in human infected with Plasmodium; settings: in vivo
Plasmodium falciparum [17] = assay: Antimalarial activity against chloroquine-sensitive Plasmodium falciparum NF54; format: functional, organism-based
Plasmodium falciparum [18] = assay: Antimalarial activity against chloroquine-sensitive Plasmodium falciparum at 1.4 nM relative to control; format: functional
[19] = Oral bioavailability in rat at 50 mg/kg; format: ADME, organism-based; settings: in vivo
[20] = Therapeutic index, ratio of compound activity in mouse assessed as body weight gain to compound activity against Plasmodium berghei infected in mouse; format: organism-based; settings: in vivo, read-out: TI
[21] = Drug degradation at 40 degC after 1 month; format: physicochemical; settings: read-out: Drug degradation
[22] = Drug degradation at 40 degC after 3 months; format: physicochemical; settings: read-out: Drug degradation

C[C@H]1[C@H](c2cccn2C)O[C@@H]2O[C@@]3(C)CC[C@H]4[C@H](C)CC[C@@H]1[C@@]24OO3
inhibition at 0.0046 µM (Plasmodium falciparum [1]): 50%

C[C@@H]1CC[C@H]2[C@@H](C)C(Oc3ccccc3)O[C@@H]3O[C@@]4(C)CC[C@@H]1[C@]32OO4 (stereo partly drawn)
IC50 (Plasmodium falciparum [2]): 5.3 nM
IC50 (Plasmodium falciparum [3]): 3.9 nM

CC1CCC2CC1OO[C@]2(C)/C=C/[C@@H](O)C(C)(C)O (stereo partly drawn)
IC50 (Plasmodium falciparum [4]): 56 nM

C[C@H]1[C@@H](OCc2ccc(C(=O)[O-])cc2)O[C@@H]2O[C@]3(C)CC[C@H]4[C@H](C)CC[C@@H]1[C@@]24OO3.[Na+] [SODIUMARTELINATE]
half-life [5]: 10.8 days

C[C@H]1[C@H](OC(=O)CCC(=O)O)O[C@@H]2O[C@@]3(C)CC[C@H]4[C@H](C)CC[C@@H]1[C@@]24OO3 [SODIUM ARESUNATE]
EC50 (Plasmodium falciparum [6]): 0.73 nM

C[C@H]1[C@@H](CCN2CCN(c3cccc(C(F)(F)F)c3)CC2)O[C@@H]2O[C@]3(C)CC[C@H]4[C@H](C)CC[C@@H]1[C@@]24OO3
ED50 (Plasmodium yoelii): 3.1 mg/kg

C=C(C)[C@@H]1OO[C@]2(O[C@H]1C1CC1)[C@H]1CC3C[C@@H](C1)C[C@H]2C3
IC50 (Plasmodium falciparum [4]): < 5 nM

C1CCCCCC2(CCCCC1)OOCCCCCOO2
EC50 (Plasmodium falciparum [7]): 1 nM

Cc1ccc(OC2O[C@@H]3O[C@@]4(C)CC[C@H]5[C@H](C)CC[C@@H]([C@H]2C)[C@@]35OO4)cc1 (stereo partly drawn)
IC50 (Plasmodium falciparum [2]): 5.3 nM
IC50 (Plasmodium falciparum [3]): 3.9 nM

C[C@H]1[C@@H](CCN2CCN(c3ccc(F)cc3)CC2)O[C@@H]2O[C@]3(C)CC[C@H]4[C@H](C)CC[C@@H]1[C@@]24OO3
ED50 (Plasmodium yoelii): < 10 mg/kg

Cc1ccc(C2=C[C@H]3OC4(CCCC4)OO[C@@]3(c3ccc(C)cc3)C2)cc1
IC50 (Plasmodium falciparum [4]): < 5 nM

CC(=O)OC1(C)CCC2CC1OO[C@]2(/C=C\c1ccc(F)cc1)c1ccccc1 (stereo partly drawn)
IC50 (Plasmodium falciparum [4]): 29 nM

C[C@H]1[C@@H](Oc2ccc(C(F)(F)F)cc2)O[C@@H]2O[C@]3(C)CC[C@H]4[C@H](C)CC[C@@H]1[C@@]24OO3
ED50 (Plasmodium berghei [8]): 2.1 mg/kg

C=C(C)[C@@H]1OO[C@]2(O[C@H]1CCC)[C@H]1CC3C[C@@H](C1)C[C@H]2C3
IC50 (Plasmodium falciparum [4]): < 5 nM

CC(C)C1=C[C@H]2OC3(CCC(NCCNc4ccnc5cc(Cl)ccc45)CC3)OO[C@@]2(C)CC1.O=C(O)CC(O)(CC(=O)O)C(=O)O (stereo partly drawn)
IC50 (Plasmodium falciparum [2]): 5 nM
IC50 (Plasmodium falciparum [3]): 4 nM
ED50 (Plasmodium vinckei [9]): 5 mg/kg
ED50 (Plasmodium vinckei [10]): 18 mg/kg

C[C@H]1[C@@H](CCN2CCN(c3ccc([N+](=O)[O-])cc3)CC2)O[C@@H]2O[C@]3(C)CC[C@H]4[C@H](C)CC[C@@H]1[C@@]24OO3
ED50 (Plasmodium yoelii): < 10 mg/kg

C[C@H]1[C@H](N2CCOCC2)O[C@@H]2O[C@@]3(C)CC[C@H]4[C@H](C)CC[C@@H]1[C@@]24OO3
logD [11]: 3.05

Fc1ccc(C2=C[C@H]3OC4(CCCC4)OO[C@@]3(c3ccc(F)cc3)C2)cc1
IC50 (Plasmodium falciparum [4]): < 5 nM

Cc1ccc([C@@H]2O[C@@H]3O[C@@]4(C)CC[C@H]5[C@H](C)CC[C@@H]([C@H]2C)[C@@]35OO4)o1
inhibition at 0.0052 µM (Plasmodium falciparum [12]): 50%

C[C@H]1[C@H](N2CCSCC2)O[C@@H]2O[C@@]3(C)CC[C@H]4[C@H](C)CC[C@@H]1[C@@]24OO3 [ARTEMISIDE]
logD [11]: 4.97

CCO[C@@]1(C(F)(F)F)O[C@@H]2O[C@@]3(C)CC[C@H]4[C@H](C)CC[C@@H]([C@H]1C)[C@@]24OO3
IC50 (Plasmodium falciparum [13]): 3.3 nM
half-life [14]: 20.8 days

C[C@H]1[C@@H](CCc2ccc(C(=O)O)cc2)O[C@@H]2O[C@]3(C)CC[C@H]4[C@H](C)CC[C@@H]1[C@@]24OO3
half-life [5]: 0.546 days

C1CCCCCC2(CCCCC1)OOCCCOO2
EC50 (Plasmodium falciparum [7]): 2.5 nM

CO[C@@]1(C(F)(F)F)O[C@@H]2O[C@@]3(C)CC[C@H]4[C@H](C)CC[C@@H]([C@H]1C)[C@@]24OO3
IC50 (Plasmodium falciparum [13]): 0.8 nM
half-life [14]: 27.5 days

C[C@@H]1CC[C@H]2[C@@H](C)C(Oc3ccc(C(F)(F)F)cc3)O[C@@H]3O[C@@]4(C)CC[C@@H]1[C@]32OO4 (stereo partly drawn)
IC50 (Plasmodium falciparum [2]): 5.3 nM
IC50 (Plasmodium falciparum [3]): 3.9 nM

COC1(c2ccc(S(C)(=O)=O)cc2)C=CC2(CCCCCC2)OO1 (stereo not drawn)
IC50 (Plasmodium berghei [15]): 31 nM

C[C@H]1[C@H](N2CCS(=O)(=O)CC2)O[C@@H]2O[C@@]3(C)CC[C@H]4[C@H](C)CC[C@@H]1[C@@]24OO3 [ARTEMIFONE]
logD [11]: 2.49
ED90 (Plasmodium berghei [15]; sc): 1.5 mg/kg
EC50 (Plasmodium falciparum [6]): 0.14 nM

C[C@@H]1CC[C@H]2[C@@H](C)C(Oc3ccc(F)cc3)O[C@@H]3O[C@@]4(C)CC[C@@H]1[C@]32OO4 (stereo partly drawn)
IC50 (Plasmodium falciparum [2]): 5.3 nM
IC50 (Plasmodium falciparum [3]): 3.9 nM

CO[C@H]1O[C@@H]2O[C@@]3(C)CC[C@H]4[C@H](C)CC[C@@H]([C@H]1C)[C@@]24OO3 [ARTEMETHER]
logD [11]: 4
ED50 (Plasmodium yoelii): 6 mg/kg

Fc1ccc(C2=C[C@H]3OC4(CCOCC4)OO[C@@]3(c3ccc(F)cc3)C2)cc1
IC50 (Plasmodium falciparum [4]): < 5 nM

C[C@@H]1CC[C@H]2[C@@H](C)C(=O)O[C@@H]3O[C@@]4(C)CC[C@@H]1[C@]32OO4 [ARTEMISININ]
half-life [16]: 0.0833 days
IC50 (Plasmodium falciparum [17]): 8.9 nM
IC50 (Plasmodium falciparum [4]): 2.8 nM

CC(=O)OC1(C)CCC2CC1OO[C@]2(/C=C\c1ccc(Cl)cc1)c1ccccc1 (stereo partly drawn)
IC50 (Plasmodium falciparum [4]): 23 nM

C[C@H]1[C@H](c2ccco2)O[C@@H]2O[C@@]3(C)CC[C@H]4[C@H](C)CC[C@@H]1[C@@]24OO3
inhibition at 0.0014 µM (Plasmodium falciparum [18]): 50%

C[C@@H]1CC[C@H]2[C@@H](C)[C@](O)(C(F)(F)F)O[C@@H]3O[C@@]4(C)CC[C@@H]1[C@]32OO4
IC50 (Plasmodium falciparum [13]): 9.4 nM
half-life [14]: 31.7 days
bioavailability [19]: 28%

CC1(C)COC2(CCC(NC3CCC(Nc4ccnc5cc(Cl)ccc45)CC3)CC2)OO1 (stereo not drawn)
IC50 (Plasmodium falciparum [2]): 7 nM
IC50 (Plasmodium falciparum [3]): 7 nM

CC1CCC2CC1OO[C@]2(C)/C=C/[C@H](O)C(C)(C)O (stereo partly drawn)
IC50 (Plasmodium falciparum [4]): 115 nM

C[C@@H]1CC[C@H]2[C@@H](C)C(Oc3ccc(Cl)cc3)O[C@@H]3O[C@@]4(C)CC[C@@H]1[C@]32OO4 (stereo partly drawn)
IC50 (Plasmodium falciparum [2]): 5.3 nM
IC50 (Plasmodium falciparum [3]): 3.9 nM

C[C@H]1[C@H](N2CC[S+]([O-])CC2)O[C@@H]2O[C@@]3(C)CC[C@H]4[C@H](C)CC[C@@H]1[C@@]24OO3
logD [11]: 2.63

C[C@H]1[C@@H](CC(C[C@H]2O[C@@H]3O[C@@]4(C)CC[C@H]5[C@H](C)CC[C@@H]([C@H]2C)[C@@]35OO4)C(=O)O)O[C@@H]2O[C@@]3(C)CC[C@H]4[C@H](C)CC[C@@H]1[C@@]24OO3 (stereo partly drawn)
selectivity ratio [20]: 167

C[C@H]1[C@@H](CCN2CCN(c3ccccc3)CC2)O[C@@H]2O[C@]3(C)CC[C@H]4[C@H](C)CC[C@@H]1[C@@]24OO3
ED50 (Plasmodium yoelii): < 10 mg/kg

COc1ccc(OC2O[C@@H]3O[C@@]4(C)CC[C@H]5[C@H](C)CC[C@@H]([C@H]2C)[C@@]35OO4)cc1 (stereo partly drawn)
IC50 (Plasmodium falciparum [2]): 5.3 nM
IC50 (Plasmodium falciparum [3]): 3.9 nM

C[C@@H]1CC[C@H]2[C@@H](C)C(Oc3ccc(-c4cccc5ccccc45)cc3)O[C@@H]3O[C@@]4(C)CC[C@@H]1[C@]32OO4 (stereo partly drawn)
IC50 (Plasmodium falciparum [2]): 5.3 nM
IC50 (Plasmodium falciparum [3]): 3.9 nM

Clc1ccc2c(NCCNC3CCC4(CC3)OOC3(c5ccccc5)CC(c5ccccc5)=CC3O4)ccnc2c1 (stereo not drawn)
IC50 (Plasmodium falciparum [2]): 20 nM
IC50 (Plasmodium falciparum [3]): 7 nM

C[C@H]1[C@@H](O)O[C@@H]2O[C@@]3(C)CC[C@H]4[C@H](C)CC[C@@H]1[C@@]24OO3 [ARTENIMOL]
degraded at 730.5 h [21]: 2%
degraded at 2191.5 h [22]: 2.9%

C[C@@H]1CC[C@H]2[C@@H](C)[C@](OC(=O)CCC(=O)O)(C(F)(F)F)O[C@@H]3O[C@@]4(C)CC[C@@H]1[C@]32OO4
IC50 (Plasmodium falciparum [13]): 4.1 nM

OCCCCCCC1COOC2(CCCCCCCCCCC2)OOC1
EC50 (Plasmodium falciparum [7]): 2.3 nM
